Laboratory results taken from ChEMBL document CHEMBL2311511, “Dipeptide cis-cyclo(Leucyl-Tyrosyl) produced by sponge associated Penicillium sp. F37 inhibits biofilm formation of the pathogenic Staphylococcus epidermidis” (Bioorg Med Chem Lett, 2013).
The source made the active and inactive calls. No cut-off for these calls is given here.

Columns and labels:
[1] = system: Staphylococcus epidermidis; test: Inhibition of Staphylococcus epidermidis ATCC 35984 biofilm formation at 1 mg/ml after 24 hrs by scanning electron microscopy; type: functional, organism-based
[2] = system: Staphylococcus epidermidis; test: Inhibition of Staphylococcus epidermidis ATCC 35984 biofilm formation at 0.125 mg/ml; type: functional, organism-based
[3] = system: Staphylococcus epidermidis; test: Toxicity in Staphylococcus epidermidis ATCC 35984 assessed as growth inhibition at 0.25 to 1 mg/ml; type: organism-based; settings: in vivo
[4] = system: Staphylococcus epidermidis; test: Inhibition of Staphylococcus epidermidis ATCC 35984 biofilm formation at 1 mg/ml; type: functional
[5] = system: Staphylococcus epidermidis; test: Inhibition of Staphylococcus epidermidis ATCC 35984 biofilm formation at 0.5 mg/ml; type: functional
[6] = system: Staphylococcus epidermidis; test: Inhibition of Staphylococcus epidermidis ATCC 35984 biofilm formation at 0.25 mg/ml; type: functional

With `CC(C)C[C@@H]1NC(=O)[C@H](Cc2ccc(O)cc2)NC1=O` the inhibition [1] was “Active”, the Activity [2] was “inactive” and the Activity [3] was “Non-toxic”. The inhibition at 1000 µg/mL [4] was 85%, the inhibition at 500 µg/mL [5] was 65% and the inhibition at 250 µg/mL [6] was 60%.
